# Measured values taken from ChEMBL document CHEMBL5465560, “Selectivity Literature for EUbOPEN Chemogenomic Library” (2024).
# Legend:
# [1] = target: T1, Mitogen-activated protein kinase kinase kinase 5 (Homo sapiens) (UniProt Q99683); conditions: at 10 µM
# T1 sequence (whole entry): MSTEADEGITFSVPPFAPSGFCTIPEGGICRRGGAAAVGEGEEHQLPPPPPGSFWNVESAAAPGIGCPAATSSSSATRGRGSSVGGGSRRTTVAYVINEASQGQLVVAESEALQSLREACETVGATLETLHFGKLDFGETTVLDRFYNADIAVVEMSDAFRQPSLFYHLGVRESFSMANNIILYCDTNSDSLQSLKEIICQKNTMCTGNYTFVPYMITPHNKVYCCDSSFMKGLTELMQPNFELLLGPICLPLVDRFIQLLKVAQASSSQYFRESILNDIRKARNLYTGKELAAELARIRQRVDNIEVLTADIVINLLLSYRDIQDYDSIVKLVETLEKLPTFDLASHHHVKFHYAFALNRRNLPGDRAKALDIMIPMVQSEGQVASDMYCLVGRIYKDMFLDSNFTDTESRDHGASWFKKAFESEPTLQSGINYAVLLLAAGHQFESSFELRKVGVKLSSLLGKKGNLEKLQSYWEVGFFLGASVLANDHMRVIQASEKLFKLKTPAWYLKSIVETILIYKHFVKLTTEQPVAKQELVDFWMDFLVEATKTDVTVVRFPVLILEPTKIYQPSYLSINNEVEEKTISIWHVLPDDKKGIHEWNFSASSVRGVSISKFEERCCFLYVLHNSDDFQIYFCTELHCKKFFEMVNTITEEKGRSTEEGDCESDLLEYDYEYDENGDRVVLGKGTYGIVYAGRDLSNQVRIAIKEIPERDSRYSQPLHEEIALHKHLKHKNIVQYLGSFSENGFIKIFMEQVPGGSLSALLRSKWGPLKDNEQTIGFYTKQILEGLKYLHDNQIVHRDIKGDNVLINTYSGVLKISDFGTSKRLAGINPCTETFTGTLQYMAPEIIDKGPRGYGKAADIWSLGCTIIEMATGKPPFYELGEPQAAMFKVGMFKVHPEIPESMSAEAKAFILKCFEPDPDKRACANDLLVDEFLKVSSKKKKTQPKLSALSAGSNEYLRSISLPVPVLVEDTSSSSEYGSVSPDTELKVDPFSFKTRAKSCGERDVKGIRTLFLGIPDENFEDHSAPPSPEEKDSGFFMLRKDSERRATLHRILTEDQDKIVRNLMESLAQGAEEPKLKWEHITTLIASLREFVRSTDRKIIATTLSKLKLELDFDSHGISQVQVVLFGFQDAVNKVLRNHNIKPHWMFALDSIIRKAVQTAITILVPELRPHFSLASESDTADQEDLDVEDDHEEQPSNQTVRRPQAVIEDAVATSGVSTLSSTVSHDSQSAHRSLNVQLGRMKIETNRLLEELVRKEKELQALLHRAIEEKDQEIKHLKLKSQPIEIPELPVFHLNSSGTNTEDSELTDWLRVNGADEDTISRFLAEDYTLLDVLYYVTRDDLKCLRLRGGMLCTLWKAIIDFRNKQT
# [2] = target: DNA (cytosine-5)-methyltransferase 1 (Homo sapiens) (UniProt P26358); experiment: Selectivity interaction (Methyltransferase screen (radiometric assays, panel of 8 PRMTs, 21 protein lysine methyltransferases, 3 DNA methyltransferases, and one RNA methyltransferase)) EUB0000272b DNMT1
# Sequence of DNA (cytosine-5)-methyltransferase 1 (Homo sapiens) (P26358 whole entry): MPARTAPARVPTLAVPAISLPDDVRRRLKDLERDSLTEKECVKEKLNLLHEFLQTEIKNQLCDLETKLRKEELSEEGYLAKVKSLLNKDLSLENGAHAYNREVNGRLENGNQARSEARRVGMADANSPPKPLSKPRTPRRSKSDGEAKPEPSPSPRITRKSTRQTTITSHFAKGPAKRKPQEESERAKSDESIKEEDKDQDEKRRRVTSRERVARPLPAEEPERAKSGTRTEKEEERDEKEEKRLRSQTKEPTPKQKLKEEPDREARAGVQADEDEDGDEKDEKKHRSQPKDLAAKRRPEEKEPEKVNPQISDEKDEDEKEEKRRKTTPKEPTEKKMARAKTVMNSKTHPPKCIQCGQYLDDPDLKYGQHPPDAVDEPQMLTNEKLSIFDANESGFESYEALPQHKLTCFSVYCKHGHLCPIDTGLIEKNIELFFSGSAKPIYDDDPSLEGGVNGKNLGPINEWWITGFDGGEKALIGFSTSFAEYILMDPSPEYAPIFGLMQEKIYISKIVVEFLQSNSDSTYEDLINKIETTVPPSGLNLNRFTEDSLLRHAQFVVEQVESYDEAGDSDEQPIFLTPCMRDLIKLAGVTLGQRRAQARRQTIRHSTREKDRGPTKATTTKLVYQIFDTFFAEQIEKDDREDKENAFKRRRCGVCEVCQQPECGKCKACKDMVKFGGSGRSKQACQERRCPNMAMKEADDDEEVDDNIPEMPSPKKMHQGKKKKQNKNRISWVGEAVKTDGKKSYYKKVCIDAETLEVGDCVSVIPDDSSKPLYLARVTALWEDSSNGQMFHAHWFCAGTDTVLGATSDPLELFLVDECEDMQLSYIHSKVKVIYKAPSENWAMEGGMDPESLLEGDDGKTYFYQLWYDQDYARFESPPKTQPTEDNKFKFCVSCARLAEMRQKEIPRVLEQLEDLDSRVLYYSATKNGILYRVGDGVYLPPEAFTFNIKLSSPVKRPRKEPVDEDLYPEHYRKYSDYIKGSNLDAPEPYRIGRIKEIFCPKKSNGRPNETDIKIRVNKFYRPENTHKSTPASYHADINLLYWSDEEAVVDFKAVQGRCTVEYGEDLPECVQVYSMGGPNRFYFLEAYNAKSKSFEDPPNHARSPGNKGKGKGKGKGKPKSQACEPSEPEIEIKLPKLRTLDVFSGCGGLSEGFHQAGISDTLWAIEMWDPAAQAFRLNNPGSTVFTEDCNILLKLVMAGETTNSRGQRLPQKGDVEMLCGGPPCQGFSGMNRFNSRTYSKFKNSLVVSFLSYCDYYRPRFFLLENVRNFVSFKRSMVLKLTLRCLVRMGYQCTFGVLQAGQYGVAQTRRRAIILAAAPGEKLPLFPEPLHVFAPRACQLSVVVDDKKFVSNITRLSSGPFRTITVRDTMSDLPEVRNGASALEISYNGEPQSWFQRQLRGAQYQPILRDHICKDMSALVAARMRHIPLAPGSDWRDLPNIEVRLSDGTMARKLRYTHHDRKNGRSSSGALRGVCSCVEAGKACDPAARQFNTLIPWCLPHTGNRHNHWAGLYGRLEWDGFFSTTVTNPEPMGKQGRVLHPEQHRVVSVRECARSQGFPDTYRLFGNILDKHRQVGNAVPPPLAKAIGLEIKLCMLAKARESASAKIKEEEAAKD
# [3] = target: Tyrosine-protein kinase JAK1 (Homo sapiens, UniProt P23458); experiment: Selectivity interaction (KinomeScan (DiscoverX)) EUB0000655a JAK1; conditions: at 10 µM
# Sequence of Tyrosine-protein kinase JAK1 (P23458 whole entry): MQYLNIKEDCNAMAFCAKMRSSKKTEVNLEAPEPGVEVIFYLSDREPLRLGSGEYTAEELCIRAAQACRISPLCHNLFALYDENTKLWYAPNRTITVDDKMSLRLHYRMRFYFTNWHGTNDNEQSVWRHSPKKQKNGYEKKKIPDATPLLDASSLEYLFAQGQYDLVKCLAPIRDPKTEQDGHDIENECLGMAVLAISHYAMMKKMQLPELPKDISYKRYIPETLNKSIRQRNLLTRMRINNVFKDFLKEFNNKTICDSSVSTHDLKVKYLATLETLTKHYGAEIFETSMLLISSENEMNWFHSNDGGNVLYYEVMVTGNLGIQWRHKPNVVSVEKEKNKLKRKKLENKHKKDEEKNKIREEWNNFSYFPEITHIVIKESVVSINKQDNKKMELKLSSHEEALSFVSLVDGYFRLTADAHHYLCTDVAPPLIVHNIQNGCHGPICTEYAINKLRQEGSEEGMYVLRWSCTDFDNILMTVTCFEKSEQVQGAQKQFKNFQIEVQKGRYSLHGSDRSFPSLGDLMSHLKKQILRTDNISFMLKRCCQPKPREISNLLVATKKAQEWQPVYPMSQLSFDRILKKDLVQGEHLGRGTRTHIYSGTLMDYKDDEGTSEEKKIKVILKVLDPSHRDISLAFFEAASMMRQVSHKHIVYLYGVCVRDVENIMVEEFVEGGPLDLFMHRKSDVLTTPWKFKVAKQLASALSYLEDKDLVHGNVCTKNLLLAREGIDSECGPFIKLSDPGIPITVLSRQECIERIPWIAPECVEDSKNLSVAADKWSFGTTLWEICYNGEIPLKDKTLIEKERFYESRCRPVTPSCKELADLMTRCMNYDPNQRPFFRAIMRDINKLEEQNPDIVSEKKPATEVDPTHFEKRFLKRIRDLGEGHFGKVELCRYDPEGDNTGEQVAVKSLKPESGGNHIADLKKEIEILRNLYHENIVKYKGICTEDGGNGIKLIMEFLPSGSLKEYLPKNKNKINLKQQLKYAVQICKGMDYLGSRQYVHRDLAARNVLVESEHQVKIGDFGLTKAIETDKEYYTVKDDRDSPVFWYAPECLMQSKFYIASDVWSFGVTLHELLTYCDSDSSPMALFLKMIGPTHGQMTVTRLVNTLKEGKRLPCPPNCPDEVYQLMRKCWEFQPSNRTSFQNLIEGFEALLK
# [4] = target: Histamine H4 receptor (Homo sapiens) (UniProt Q9H3N8); experiment: Selectivity interaction (GPCR panel (PDSP screen)) EUB0001079a HRH4; conditions: at 10 µM
# [5] = target: TGF-beta receptor type-2 (Homo sapiens) (UniProt P37173); experiment: Selectivity interaction (KinomeScan (DiscoverX)) EUB0001079a TGFBR2; conditions: at 1 µM
# Sequence of TGF-beta receptor type-2 (Homo sapiens) (P37173 whole entry): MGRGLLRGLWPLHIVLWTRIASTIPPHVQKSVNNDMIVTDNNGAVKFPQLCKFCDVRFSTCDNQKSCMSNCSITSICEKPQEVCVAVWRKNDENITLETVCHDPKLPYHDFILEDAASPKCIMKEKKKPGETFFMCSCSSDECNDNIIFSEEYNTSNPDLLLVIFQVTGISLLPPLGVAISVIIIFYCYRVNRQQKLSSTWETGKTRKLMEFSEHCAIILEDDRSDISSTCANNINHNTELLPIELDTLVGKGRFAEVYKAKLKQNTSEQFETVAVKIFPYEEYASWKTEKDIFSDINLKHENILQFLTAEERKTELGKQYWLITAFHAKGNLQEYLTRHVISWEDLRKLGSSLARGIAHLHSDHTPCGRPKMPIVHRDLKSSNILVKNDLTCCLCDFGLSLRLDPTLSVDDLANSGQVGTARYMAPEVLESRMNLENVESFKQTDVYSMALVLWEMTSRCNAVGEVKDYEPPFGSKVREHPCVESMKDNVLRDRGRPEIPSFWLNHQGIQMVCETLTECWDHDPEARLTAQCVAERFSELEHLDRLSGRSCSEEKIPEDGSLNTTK
# [6] = target: Vascular endothelial growth factor receptor 2 (Homo sapiens, UniProt P35968); experiment: Selectivity interaction (Kinase panel (33PanQinase(R) Activity Assay)) EUB0000877a KDR
# [7] = target: Protein kinase C eta type (Homo sapiens) (UniProt P24723); experiment: Selectivity interaction (Millipore kinase profiler) EUB0000124b PRKCH; conditions: at 10 µM
# [8] = target: Serine/threonine-protein kinase PAK 4 (Homo sapiens, UniProt O96013); experiment: Selectivity interaction (KinomeScan (DiscoverX)) EUB0001049a PAK4; conditions: at 1 µM
# [9] = target: N-lysine methyltransferase SMYD2 (Homo sapiens) (UniProt Q9NRG4); experiment: Selectivity interaction (Methyltransferase screen (radiometric assays, panel of 8 PRMTs, 21 protein lysine methyltransferases, 3 DNA methyltransferases, and one RNA methyltransferase)) EUB0000271b SMYD2
# Sequence of N-lysine methyltransferase SMYD2 (Homo sapiens) (Q9NRG4 whole entry): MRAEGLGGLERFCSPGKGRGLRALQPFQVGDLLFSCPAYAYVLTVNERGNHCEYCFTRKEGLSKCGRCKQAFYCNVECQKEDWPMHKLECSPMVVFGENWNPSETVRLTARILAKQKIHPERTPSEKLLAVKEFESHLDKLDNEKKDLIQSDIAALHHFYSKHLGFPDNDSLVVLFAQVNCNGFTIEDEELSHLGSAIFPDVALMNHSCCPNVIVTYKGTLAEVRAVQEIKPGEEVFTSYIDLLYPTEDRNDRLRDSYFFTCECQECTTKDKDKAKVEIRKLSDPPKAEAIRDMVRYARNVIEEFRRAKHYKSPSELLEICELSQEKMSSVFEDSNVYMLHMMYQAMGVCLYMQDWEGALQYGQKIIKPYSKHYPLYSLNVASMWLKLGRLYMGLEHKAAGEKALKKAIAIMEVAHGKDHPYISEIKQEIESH
# [10] = target: T2, Mitogen-activated protein kinase 12 (Homo sapiens) (UniProt P53778); experiment: Selectivity interaction (KinomeScan (DiscoverX)) EUB0000695a MAPK12; conditions: at 100 nM
# T2 sequence (whole entry): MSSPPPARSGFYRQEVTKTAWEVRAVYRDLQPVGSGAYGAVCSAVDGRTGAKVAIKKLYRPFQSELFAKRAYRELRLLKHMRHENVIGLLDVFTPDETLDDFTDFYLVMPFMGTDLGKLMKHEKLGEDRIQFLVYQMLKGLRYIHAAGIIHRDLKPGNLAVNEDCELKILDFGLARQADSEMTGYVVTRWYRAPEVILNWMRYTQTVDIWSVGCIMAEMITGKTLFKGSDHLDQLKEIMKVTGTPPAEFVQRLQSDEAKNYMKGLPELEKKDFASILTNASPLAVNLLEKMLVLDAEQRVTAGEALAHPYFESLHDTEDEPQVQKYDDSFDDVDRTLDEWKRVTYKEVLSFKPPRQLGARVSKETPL
# [11] = target: Transient receptor potential cation channel subfamily M member 6 (Homo sapiens) (UniProt Q9BX84); experiment: Selectivity interaction (KinomeScan (DiscoverX)) EUB0000695a TRPM6; conditions: at 100 nM
# [12] = target: Non-receptor tyrosine-protein kinase TYK2 (Homo sapiens, UniProt P29597); experiment: Selectivity interaction (KinomeScan (DiscoverX)) EUB0000045b TYK2; conditions: at 1 µM
# [13] = target: Cyclin-dependent kinase 8 (Homo sapiens, UniProt P49336); experiment: Selectivity interaction (KinomeScan (DiscoverX)) EUB0000618a CDK8; conditions: at 10 µM
# Sequence of Cyclin-dependent kinase 8 (P49336 whole entry): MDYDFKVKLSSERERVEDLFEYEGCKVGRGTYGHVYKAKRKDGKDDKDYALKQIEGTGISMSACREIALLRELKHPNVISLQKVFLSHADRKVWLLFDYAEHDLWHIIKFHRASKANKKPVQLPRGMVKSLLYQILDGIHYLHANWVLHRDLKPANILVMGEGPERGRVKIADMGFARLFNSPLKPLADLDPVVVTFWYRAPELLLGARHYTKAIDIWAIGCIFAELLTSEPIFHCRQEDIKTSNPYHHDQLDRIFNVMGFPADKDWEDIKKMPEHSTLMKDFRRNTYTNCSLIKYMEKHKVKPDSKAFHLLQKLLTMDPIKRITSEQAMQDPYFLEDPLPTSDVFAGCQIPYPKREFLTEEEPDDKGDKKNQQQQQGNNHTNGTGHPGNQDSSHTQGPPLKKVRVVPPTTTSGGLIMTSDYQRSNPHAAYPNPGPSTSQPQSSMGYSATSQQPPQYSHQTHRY
# [14] = target: Serine/threonine-protein kinase PLK2 (Homo sapiens, UniProt Q9NYY3); experiment: Selectivity interaction (KinomeScan (DiscoverX)) EUB0000618a PLK2; conditions: at 10 µM
# [15] = target: Maternal embryonic leucine zipper kinase (Homo sapiens) (UniProt Q14680); experiment: Selectivity interaction (KinomeScan (DiscoverX)) EUB0001619a MELK; conditions: at 1 µM
# Sequence of Maternal embryonic leucine zipper kinase (Homo sapiens) (Q14680 whole entry, looked up): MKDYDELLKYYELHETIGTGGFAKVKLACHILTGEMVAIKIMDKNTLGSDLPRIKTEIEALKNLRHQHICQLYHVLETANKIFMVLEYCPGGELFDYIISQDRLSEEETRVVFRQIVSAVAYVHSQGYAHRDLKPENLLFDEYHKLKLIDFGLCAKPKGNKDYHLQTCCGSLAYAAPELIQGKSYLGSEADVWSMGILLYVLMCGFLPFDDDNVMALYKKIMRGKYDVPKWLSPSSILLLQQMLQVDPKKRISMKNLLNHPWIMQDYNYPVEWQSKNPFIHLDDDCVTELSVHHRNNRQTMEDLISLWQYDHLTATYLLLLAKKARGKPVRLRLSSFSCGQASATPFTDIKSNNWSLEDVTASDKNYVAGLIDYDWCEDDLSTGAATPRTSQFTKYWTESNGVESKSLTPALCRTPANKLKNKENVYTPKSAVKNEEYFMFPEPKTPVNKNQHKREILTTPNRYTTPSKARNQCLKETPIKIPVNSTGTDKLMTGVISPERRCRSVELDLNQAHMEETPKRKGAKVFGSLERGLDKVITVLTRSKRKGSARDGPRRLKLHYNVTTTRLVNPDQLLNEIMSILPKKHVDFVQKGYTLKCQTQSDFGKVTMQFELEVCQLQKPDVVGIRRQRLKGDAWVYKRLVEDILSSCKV
# [16] = target: TRAF2 and NCK-interacting protein kinase (Homo sapiens) (UniProt Q9UKE5); experiment: Selectivity interaction (KinomeScan (DiscoverX)) EUB0001619a TNIK; conditions: at 1 µM
smiles,measurement,setting,value
CCN(CC)CCCCNc1ncc2cc(-c3cc(OC)cc(OC)c3)c(NC(=O)NC(C)(C)C)nc2n1,% of control,[1],100%
Cc1cc(C)cc([C@H]2c3cc(C)ccc3NC(=O)CN2C(=O)c2ccc(Br)s2)c1,% of activity,[2]; at 1 µM,98.7%
same,% of activity,[2]; at 10 µM,104%
CN(C)CCOc1ccc(-c2nc(-c3ccncc3)c(-c3ccc4c(c3)CC/C4=N\O)[nH]2)cc1,% of control,[3],0.5%
Nc1cnc(N2CCc3cc(S(=O)(=O)Nc4c(F)cc(Cl)cc4F)cc(N4CCCC4=O)c32)nc1 [TP-020n],% of inhibition,[4],-0.37%
same,% of control,[5],92%
CCC(=O)N1CC[C@H](Nc2ncnc3c2CN(c2cnc(OC)c(C(F)(F)F)c2)CC3)C1 [LENIOLISIB],IC50,[6],> 10 µM
CC(=O)Nc1cccc(-n2c(=O)n(C3CC3)c(=O)c3c(Nc4ccc(I)cc4F)n(C)c(=O)c(C)c32)c1,% of control,[7],107%
COc1cc(Nc2nc(C)cc(-c3cnn4nc(OC)ccc34)n2)cc(C(F)(F)F)c1,% of control,[8],88%
Cc1cc(C)cc([C@@H]2c3cc(C)ccc3NC(=O)CN2C(=O)c2ccc(Br)s2)c1,% of activity,[9]; at 1 µM,101%
same,% of activity,[9]; at 10 µM,96.7%
Cc1cc(F)c(C(=O)Nc2cccc(-c3nncn3C(C)C)n2)cc1-n1cnc(C2CC2)c1,% of control,[10],100%
same,% of control,[11],100%
C=CC(=O)Nc1cc(-n2c(=O)ccc3cnc4ccc(-c5ccc(NS(C)(=O)=O)cc5)cc4c32)ccc1C,% of control,[12],80%
O[C@H]1CC[C@H](Nc2ncc3nc(Nc4c(F)cc(F)cc4F)n([C@H]4CCOC4)c3n2)CC1,% of control,[13],100%
same,% of control,[14],100%
N#Cc1cccc(-c2c[nH]c3ncnc(N4CCOCC4)c23)c1,% of control,[15],69%
same,% of control,[16],45%
